Assay results: patent publication US11484708B2, “Methods and devices for surgical pre-treatment” (Vomaris Innovations, Inc., priority 2014, dated 2022)

What was measured:
Human keratinocytes = experiment: in vitro scratch assay (cell migration); assay type: cell-based
Description: The in vitro scratch assay is an easy, low-cost and well-developed method to measure cell migration in vitro. The basic steps involve creating a “scratch” in a cell monolayer, capturing images at the beginning and at regular intervals during cell migration to close the scratch, and comparing the images to quantify the migration rate of the cells. Compared to other methods, the in vitro scratch assay is particularly suitable for studies on the effects of cell-matrix and cell-cell interactions on cell migration, mimic cell migration during wound healing in vivo and are compatible with imaging of live cells during migration to monitor intracellular events if desired. In addition to monitoring migration of homogenous cell populations, this method has also been adopted to measure migration of individual cells in the leading edge of the scratch.
Human keratinocytes were plated under plated under placebo or a LLEC system described herein (labeled “PROCELLERA®”). Cells were also plated under silver-only or zinc-only dressings. After 24 hours, the scratch assay was performed.
Cell culture—Immortalized HaCaT human keratinocytes were grown in Dulbecco's low-glucose modified Eagle's medium (Life Technologies, Gaithersburg, Md., U.S.A.) supplemented with 10% fetal bovine serum, 100 U/ml penicillin, and 100 μg/ml streptomycin. The cells were maintained in a standard culture incubator with humidified air containing 5% CO2 at 37° C.
Scratch assay—A cell migration assay was performed using culture inserts (IBIDI®, Verona, Wis.) according to the manufacturer's instructions. Cell migration was measured using time-lapse phase-contrast microscopy following withdrawal of the insert. Images were analyzed using the AxioVision Rel 4.8 software.
N-Acetyl Cysteine Treatment—Cells were pretreated with 5 mM of the thiol antioxidant N-acetylcysteine (Sigma) for 1 h before start of the scratch assay.
IGF-1 R inhibition—When applicable, cells were preincubated with 50 nM IGF-1 R inhibitor, picropodophyllin (Calbiochem, Mass.) just prior to the Scratch Assay. […]

HUVEC cells [1] = experiment: EF-induced reorientation of endothelial cells (orientation index Oi); assay type: cell-based, human
Procedure: HUVEC cells were seeded in a trough formed by two parallel (1 cm apart) strips of glass coverslip (No. 1, length of 22 mm) fixed to the base of the dish with silicone grease. Scratch lines were made perpendicular to the long axis of the chamber with a fine sterile needle and used as reference marks for directed cell migration. Cells were incubated for 24-48 hours (37° C., 5% CO2) before a roof coverslip was applied and sealed with silicone grease. The final dimensions of the chamber, through which current was passed, were 22×10×0.2 mm. Agar-salt bridges not less than 15 cm long were used to connect silver/silver-chloride electrodes in beakers of Steinberg's solution (58 mM NaCl, 0.67 mM KCl, 0.44 mM Ca(NO3)2, 1.3 mM MgSO4, 4.6 mM Trizma base, pH 7.8-8.0), to pools of excess culture medium at either side of the chamber. Field strengths were measured directly at the beginning of, the end of and during each experiment. […] (50 μM), the Rho kinase inhibitor Y27632 (50 μM), both Akt and Rho kinase inhibitors (10 μM each) or latrunculin (50 nM) for 1 hour before EF stimulation. The same concentration of drug was present during EF exposure in a CO2 incubator.
A series of images was taken with an image analyser immediately before EF exposure and at 4, 8 and 24 hours of EF exposure. Cell orientation was quantified as an orientation index (Oi), which is defined as Oi=cos2(α), where α is the angle formed by the long axis of a cell with a line drawn perpendicular to the field lines. A cell with its long axis parallel to the vector of the EF will have an Oi of −1, and a cell with its long axis exactly perpendicular to the EF vector will have an Oi of +1. […] The significance of this two-dimensional orientation distribution against randomness was calculated using Rayleigh's distribution. A long:short axis ratio was calculated for assessment of elongation.

HUVEC cells [2] = experiment: EF-induced elongation of endothelial cells (long:short axis ratio); assay type: cell-based, human; conditions: for long:short axis ratio in EF-treated cells: inhibitor 50 μM, vs control
Procedure: Tissue culture reagents were obtained from Life Technologies UK. […] Rhodamine-phalloidin (E3478) was obtained from Molecular Probes (Leiden, The Netherlands) and anti-tubulin conjugated with FITC was obtained from Sigma. The HUVEC cell line from ATCC was used prior to passage 10. Dulbecco's modified Eagle's medium (DMEM) with 10% fetal bovine serum (FBS) was used for culture cells and EF exposure experiments.
HUVEC cells were seeded in a trough formed by two parallel (1 cm apart) strips of glass coverslip (No. 1, length of 22 mm) fixed to the base of the dish with silicone grease. Scratch lines were made perpendicular to the long axis of the chamber with a fine sterile needle and used as reference marks for directed cell migration. Cells were incubated for 24-48 hours (37° C., 5% CO2) before a roof coverslip was applied and sealed with silicone grease. The final dimensions of the chamber, through which current was passed, were 22×10×0.2 mm. Agar-salt bridges not less than 15 cm long were used to connect silver/silver-chloride electrodes in beakers of Steinberg's solution (58 mM NaCl, 0.67 mM KCl, 0.44 mM Ca(NO3)2, 1.3 mM MgSO4, 4.6 mM Trizma base, pH 7.8-8.0), to pools of excess culture medium at either side of the chamber. Field strengths were measured directly at the beginning of, the end of and during each experiment. No fluctuations in field strength were observed. […] (50 μM), the Rho kinase inhibitor Y27632 (50 μM), both Akt and Rho kinase inhibitors (10 μM each) or latrunculin (50 nM) for 1 hour before EF stimulation. […]
A series of images was taken with an image analyser immediately before EF exposure and at 4, 8 and 24 hours of EF exposure. Cell orientation was quantified as an orientation index (Oi), which is defined as Oi=cos2(α), where α is the angle formed by the long axis of a cell with a line drawn perpendicular to the field lines. […] The significance of this two-dimensional orientation distribution against randomness was calculated using Rayleigh's distribution. A long:short axis ratio was calculated for assessment of elongation.

[3] = inhibitor 50 μM, 1 hour before and during EF

## COc1cc([C@@H]2c3cc4c(cc3[C@H](O)[C@H]3COC(=O)[C@@H]23)OCO4)cc(OC)c1OC [IGF-1 R inhibitor, picropodophyllin]
Human keratinocytes; 50 nM picropodophyllin just prior to scratch assay
  increased keratinocyte migration observed with LLEC, in presence of IGF-1 R inhibitor: attenuated the increased keratinocyte migration

## CC(=O)N[C@@H](CS)C(=O)O [N-Acetyl Cysteine, N-acetylcysteine]
Human keratinocytes; 5 mM, 1 h pretreatment before scratch assay
  increased keratinocyte migration observed with LLEC, in presence of N-acetyl cysteine: failed to reproduce the increased migration

## 1-L-6-hydroxymethyl-chiro-inositol 2-[(R)-2-O-methyl-3-O-octadecylcarbonate] [Akt inhibitor]
HUVEC cells [1]; [3]
  orientation response of cells in an EF: significantly decreased the orientation response
HUVEC cells [2]
  long:short axis ratio in EF-treated cells: significantly decreased the long:short axis ratio

## COc1cc2ncnc(Nc3ccc(Cl)cc3F)c2cc1OC [VEGFR inhibitor, 4-[(4′-chloro-2′-fluoro)phenylamino]-6,7-dimethoxyquinazoline]
HUVEC cells [1]; [3]
  orientation response of cells in an EF: completely abolished the reorientation of cells in an EF

## catalase
Human keratinocytes; HaCaT transfected with AdCatalase, 72 h
  increased migration triggered by the LLEC, with over-expression of catalase: attenuated the increased migration

## C[C@@H](N)[C@H]1CC[C@H](C(=O)Nc2ccncc2)CC1 [Y27632]
HUVEC cells [2]
  long:short axis ratio in EF-treated cells: significantly decreased the long:short axis ratio

## C/C1=C/C(=O)O[C@@H]2C[C@@H](CC[C@H](C)/C=C\C=C\CC1)O[C@@](O)([C@@H]1CSC(=O)N1)C2 [Latrunculin A]
HUVEC cells [1]; latrunculin 50 nM, P<0.001
  orientation response of cells in an EF: suppressed the orientation response significantly
HUVEC cells [2]; latrunculin 50 nM
  EF-induced elongation response: completely abolished the EF-induced elongation response
